Results as given in patent US20080153872A1, “Bis-(Coumarin) Compounds With Anti-Inflammatory Activity” (priority 2005, published 2008).

What was measured:
Human ERK1 = biological target: T1, Human ERK1 (Homo sapiens, UniProt P27361); experiment: Human protein serine/threonine kinase, ERK1, assay; format: biochemical; conditions: 10 μM
T1 construct: made in house; host or cells: Escherichia coli
Protocol: (§1) All compounds were dissolved in dimethyl sulfoxide (DMSO). Final concentration of the DMSO in all tests was 1% (v/v). Inhibition in all tests is considered preferred if it exceeds 50% at 10 μM concentration (or less).
Human ERK1 is expressed in Escherichia coli and purified. Compounds are pre-incubated in MOPS/EGTA buffer with pervanadate, DTT and γ-[^32P]-ATP with recombinant enzyme for 15 minutes at 37° C. Substrate (purified myelin basic protein, MBP) is added, followed by incubation at 37° C. for 30 minutes. Enzyme activity is measured by quantitation of [^32P]-MBP and inhibition is calculated from specific radioactivity. ERK1 is a serine/threonine kinase activated in MAPK (mitogen activated kinase) pathway. ERK1 is implicated in a high proportion of human cancers, including Hodgkin disease. ERK1 is involved in processes of cell growth, division and inflammation.

IL-5 = experiment: Inhibition of IL-5 production by ConA stimulated mouse splenocytes; format: cell-based; conditions: 25 μM
Protocol: (§2) Spleen cell suspension was obtained from BALB/c mice and lymphocytes separated by gradient density centrifugation on Histopaque 1.083 on 400 g for 30 minutes. They were washed once in medium, counted and their number adjusted as 3×10^5/200 μL/well in 96 flat bottomed culture plate in RPMI supplemented with 10% fetal bovine serum. Cells were stimulated on cytokine production by adding concanavalinA (ConA) at 5 μg/mL final concentration. Unstimulated cells were cultured in medium alone. Stock solution was prepared out of testing compounds as 10 mM in DMSO. Final concentrations made in cell culture medium were tested when they had been added together with ConA. After 72 hours incubation period cell culture supernatants were collected. In each sample IL-4, IL-5, IL-10 and IFNγ were detected and quantified using enzyme linked immunosorbent assay (ELISA) specific for pointed cytokines (R&D Systems).
(§3) To calculate results, standard curve was made out of measured OD values for recombinant protein in known concentrations. Cytokine content in unknown samples was calculated out of OD values extrapolated from the standard curve.
(§4) Percentage of inhibition is calculated using formula:
(§5) % Inhibition=(1−cytokine concentration of sample/cytokine concentration of positive control)×100.

Human recombinant Lck = biological target: T2, Human recombinant Lck (Homo sapiens, UniProt P06239); experiment: Human protein tyrosine kinase, Lck, inhibition assay; format: biochemical; conditions: 10 μM
T2 construct: made in house; host or cells: Sf21 insect cells
Protocol: as §1
Human recombinant Lck is expressed in insect Sf21 expression system and purified. Substances are pre-incubated for 15 minutes at 25° C. in HEPES buffer containing ATP, pervanadate and magnesium. Substrate (poly Glu-Tyr) is added and incubated for 60 minutes at 25° C. Activity of the enzyme is measured using phosphotyrosine (p-Tyr) specific enzyme immunoassay and inhibition is calculated from the determination of the concentration of p-Tyr. Protein tyrosine kinase, Lck, is a protein tyrosine kinase which is abundantly expressed in T-lymphocytes and is essential for T-cell receptor signal transduction and thus activation of T-lymphocytes. Lck activation stimulates recruitment and activation of ZAP-70, which is essential for T-cell activation. Inhibitors of Lck act as immunoregulatory agents in various models. Lck is implicated in T-cell leukemias and inflammation.

Tachykinin NK2 receptor = biological target: T3, Tachykinin NK2 receptor (Homo sapiens, UniProt P21452); experiment: Human tachykinin NK2 receptor assay (SR-48968 competition); format: binding; conditions: 10 μM concentration; CHO-K1, competition with SR-48968
T3 construct: expressed in transfected cells; host or cells: CHO-K1
T3 sequence (P21452 1-398): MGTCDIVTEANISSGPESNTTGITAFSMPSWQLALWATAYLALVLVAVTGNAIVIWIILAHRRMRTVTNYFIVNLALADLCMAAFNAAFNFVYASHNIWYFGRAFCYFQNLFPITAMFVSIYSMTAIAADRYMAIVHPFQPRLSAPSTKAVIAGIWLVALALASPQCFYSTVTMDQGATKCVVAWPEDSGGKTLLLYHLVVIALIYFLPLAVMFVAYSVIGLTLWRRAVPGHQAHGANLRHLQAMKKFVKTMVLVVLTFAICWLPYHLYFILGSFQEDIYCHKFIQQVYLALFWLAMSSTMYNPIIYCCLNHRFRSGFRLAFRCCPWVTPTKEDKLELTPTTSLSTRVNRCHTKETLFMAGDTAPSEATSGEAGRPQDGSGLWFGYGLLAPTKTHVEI
Protocol: as §1
Tachykinin NK2 receptor is expressed in Chinese hamster ovary cell line, clone K1 (CHO-K1). Substances and radioactive competitor (tritium labelled SR-48968) are incubated with cells in HEPES/NaOH buffer for 90 minutes at 25° C. in the presence of manganese ions. Levels of the bound SR-48968 is measured by scintillation counting, and competition is calculated from the total amount of the bound SR-48968 in treated and control samples. Tachykinin receptors are involved in physiological and pathological processes of inflammation and pain. Tachykinin NK2 has been identified as a target for intervention in asthma, GI disease, irritable bowel syndrome and pancreatitis.

IL-10 = experiment: Inhibition of IL-10 production by ConA stimulated mouse splenocytes; format: cell-based; conditions: 25 μM
Protocol: as §2, §3, §4, §5

T2 sequence (P06239 whole entry): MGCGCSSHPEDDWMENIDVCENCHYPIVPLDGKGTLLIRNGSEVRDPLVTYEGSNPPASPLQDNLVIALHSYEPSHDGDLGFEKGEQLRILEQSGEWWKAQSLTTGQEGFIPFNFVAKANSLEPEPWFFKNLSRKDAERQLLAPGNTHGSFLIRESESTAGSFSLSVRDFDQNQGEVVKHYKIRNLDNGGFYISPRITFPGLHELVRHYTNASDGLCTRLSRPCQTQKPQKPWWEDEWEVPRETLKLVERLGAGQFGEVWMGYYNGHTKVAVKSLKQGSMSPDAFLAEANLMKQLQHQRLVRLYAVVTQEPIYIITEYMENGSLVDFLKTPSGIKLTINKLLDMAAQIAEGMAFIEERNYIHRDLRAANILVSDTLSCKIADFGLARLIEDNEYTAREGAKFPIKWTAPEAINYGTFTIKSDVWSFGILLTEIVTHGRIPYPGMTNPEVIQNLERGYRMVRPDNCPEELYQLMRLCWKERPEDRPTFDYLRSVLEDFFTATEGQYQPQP
T1 sequence (P27361 whole entry): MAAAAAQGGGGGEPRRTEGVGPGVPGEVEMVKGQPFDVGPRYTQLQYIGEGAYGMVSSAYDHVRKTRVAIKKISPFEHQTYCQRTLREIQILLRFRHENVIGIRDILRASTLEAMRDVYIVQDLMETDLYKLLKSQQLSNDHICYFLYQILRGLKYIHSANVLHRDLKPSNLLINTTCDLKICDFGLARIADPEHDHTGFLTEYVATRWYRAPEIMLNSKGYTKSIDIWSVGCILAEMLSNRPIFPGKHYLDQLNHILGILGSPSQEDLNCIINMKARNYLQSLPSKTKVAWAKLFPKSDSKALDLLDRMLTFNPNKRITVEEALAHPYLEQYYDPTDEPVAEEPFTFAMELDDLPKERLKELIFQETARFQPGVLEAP

| SMILES | inhibition of human ERK1 activity (Human ERK1) | inhibition of IL-5 production (IL-5) | inhibition of human Lck activity (Human recombinant Lck) | inhibition of NK2 activity (Tachykinin NK2 receptor) | inhibition of IL-10 production (IL-10) |
| --- | --- | --- | --- | --- | --- |
| CC(=O)C(c1c(O)c2cccc(C(C)C)c2oc1=O)c1c(O)c2cccc(C(C)C)c2oc1=O [Example 19] | significantly inhibited | significantly inhibited | significantly inhibited | significant inhibition | – |
| CC(C)c1cccc2c(O)c(C(CO)c3c(O)c4cccc(C(C)C)c4oc3=O)c(=O)oc12 [Example 30] | – | significantly inhibited | – | – | significantly inhibited |
| CC(C)c1cccc2c(O)c(C(C(=O)OCCO)c3c(O)c4cccc(C(C)C)c4oc3=O)c(=O)oc12 [Example 50] | – | – | – | significant inhibition | – |
